Assay [1] addresses 3-phosphoinositide-dependent protein kinase 1 (Homo sapiens) (UniProt O15530). In words: Inhibition of PDK1.
A short description of assay [2]: Inhibition of retinoblastoma susceptibility gene product phosphorylation in human MCF7 cells after 24 hrs.

Molecules are shown by their SMILES.

By IC50 is commonly meant the concentration that inhibits the measured activity by half. Turning to `O=C1NC(=O)c2ccc(I)cc2C1=CNCc1ccc(-c2ccoc2)c(O)c1` [4-[(4-Furan-3-yl-3-hydroxy-benzylamino)-methylene]-6-iodo-4Hisoquinoline-1,3-dione], the IC50 is 17000 nM in assay [1] and 610 nM in assay [2].

Regarding `CCCOc1cnc(CNC=C2C(=O)NC(=O)c3ccc(C(C)(C)C)cc32)cc1O` [6-tert-Butyl-4-{[(4-hydroxy-5-propoxy-pyridin-2-ylmethyl)-amino]-methylene}-4H-isoquinoline-1,3-dione], in assay [2], the IC50 came to 200 nM.

As for `O=C1NC(=O)c2ccc(I)cc2C1=CNCc1ccn(-c2ccoc2)c(=O)c1` [(4Z)-4-[({[1-(3-Furyl)-2-oxo-1,2-dihydropyridin-4-yl]methyl}-amino)methylene]-6-iodoisoquinoline-1,3(2H,4H)-dione], in assay [2], the 50% inhibitory concentration (IC50) is 370 nM.

For the origin of these results see BindingDB's records for doi:10.1021/jm801026e (Wyeth Research, 2009).
